Values joined by “and” are separate entries in the source; they are usually repeats but may differ in a detail not shown here. Equal entries are not always repeated. ± gives the expanded uncertainty stated by the source.
Legend:
[1] = molar enthalpy of transition or fusion; settings: drop calorimetry
[2] = molar enthalpy of vaporization or sublimation; settings: 298.15 K; Liquid; drop calorimetry
[3] = Crystal, Calculated from knudsen effusion weight loss

| Structure (SMILES) | molar enthalpy of transition or fusion ([1]; 324.2 K, Liquid) | molar enthalpy [2] | molar enthalpy of transition or fusion ([1]; 349.4 K, Crystal) | vapor or sublimation pressure ([3]; 271.17 K) | vapor or sublimation pressure ([3]; 273.17 K) | vapor or sublimation pressure ([3]; 275.13 K) | vapor or sublimation pressure ([3]; 277.16 K) | vapor or sublimation pressure ([3]; 279.06 K) | vapor or sublimation pressure ([3]; 281.16 K) | vapor or sublimation pressure ([3]; 283.17 K) | vapor or sublimation pressure ([3]; 285.14 K) | vapor or sublimation pressure ([3]; 287.14 K) |
| --- | --- | --- | --- | --- | --- | --- | --- | --- | --- | --- | --- | --- |
| COc1ccccc1I [1-iodo-2-methoxybenzene] | 16.52 ± 0.0956 kcal/mol | 15.6 ± 0.669 kcal/mol |  |  |  |  |  |  |  |  |  |  |
| COc1ccc(I)cc1 [1-iodo-4-methoxybenzene] |  | 19.7 ± 0.717 kcal/mol | 21.61 ± 0.143 kcal/mol | 0.000123 ± 2e-05 kPa and 0.00012 ± 2e-05 kPa and 0.000116 ± 2e-05 kPa | 0.000161 ± 2.1e-05 kPa and 0.000156 ± 2.1e-05 kPa and 0.000153 ± 2.1e-05 kPa | 0.000213 ± 2.1e-05 kPa and 0.000211 ± 2.1e-05 kPa and 0.000196 ± 2.1e-05 kPa | 0.000267 ± 2.2e-05 kPa and 0.000258 ± 2.2e-05 kPa and 0.000279 ± 2.2e-05 kPa | 0.00035 ± 2e-05 kPa and 0.000334 ± 2.3e-05 kPa and 0.000332 ± 2.3e-05 kPa | 0.000463 ± 2.6e-05 kPa and 0.000446 ± 2.6e-05 kPa and 0.000429 ± 2.5e-05 kPa | 0.000606 ± 2.9e-05 kPa and 0.000571 ± 2.8e-05 kPa and 0.000555 ± 2.8e-05 kPa | 0.000749 ± 3.3e-05 kPa and 0.000718 ± 3.2e-05 kPa | 0.000979 ± 4e-05 kPa and 0.000924 ± 3.8e-05 kPa and 0.000923 ± 3.8e-05 kPa |
| COc1cccc(I)c1 [3-iodoanisole] | 15.85 ± 0.0478 kcal/mol | 14.9 ± 0.621 kcal/mol |  |  |  |  |  |  |  |  |  |  |

— the NIST ThermoML archive (doi:10.1016/j.jct.2011.12.001)
